Data taken from patent US11555031B2, “Compounds and methods for regulating insulin secretion” (The Broad Institute, Inc., priority 2017, dated 2023).

Test system: INS-1E cells
Assay: Luciferase Insulin Secretion Assay (proinsulin-Gaussia luciferase reporter)
Type: cell-based, rat
Design: key to Activity: Active: a compound is identified as active if the compound has a Z-score greater than 3 in the presence of 16.7 mM glucose; Partial activity indicates that the compound does promote insulin secretion (at lower Z-scores); Lost Glucose Dependence: In some cases, insulin secretion was promoted at both measured insulin concentrations
Conditions: for glucose-dependent (glucose-stimulated) insulin secretion, luciferase reporter: INS-1E cells, 2.8 mM vs 16.7 mM glucose; for Activity: glucose dependence of insulin secretion, Z-score in the presence of 16.7 mM glucose
Text: A high-throughput luminescent insulin secretion assay was developed and performed to identify compounds that amplified insulin secretion only in the presence of a permissive glucose environment (FIG. 3). The assay used in compound screening is described in International Patent Publication No. WO2013070796A3, PCT/US2012/063982, and in Burns et al., High-Throughput Luminescent Reporter of Insulin Secretion for Discovering Regulators of Pancreatic Beta-Cell Function. Cell Metab. 2015 Jan. 6; 21(1):126-37.
The assay is a luminescent insulin secretion assay created by inserting Gaussia luciferase within the C-peptide portion of the insulin prohormone. Gaussia luciferase was chosen because of its small size and bright luciferase signal. To ensure full activity of the luciferase, a version was used that was codon-optimized for expression in mammalian cells. The enzyme was flanked with additional cleavage sites for prohormone convertase 2 (PC2), such that no extra amino acids should be present on the ends of the enzyme after processing within the vesicles (FIG. 4). Rat (INS-1E; Merglen et al., 2004) beta-cell lines stably expressing the reporter construct were generated. Assays using this cell type are referred to herein as Luciferase Insulin Secretion Assay.
A search for glucose-dependent insulin secretagogues was conducting by screening 384,216 compounds at a single concentration (10 μM) in duplicate using the Luciferase Insulin Secretion Assay, to identify those that increase insulin secretion only in the presence of high glucose (11.1 mM) (FIG. 6). These assays were performed in 1536 well format. A Z′ factor of 0.35 was obtained with respect the positive control (300 μM IBMX). The cutoff value selected was 45% activation, which was 3-4 standard deviations above background (solid uppermost line; FIG. 6).
For standard secretion assays, INS-1E cells were plated in 96-well format, preincubated for 1 hr in Krebs Ringer Buffer (KRB) with 2.8 mM glucose, and then stimulated for 1 hr in fresh KRB containing varying amounts of glucose and compounds. Insulin or C-peptide concentration was determined using an ELISA (Mercodia), following the manufacturer's protocol. Luciferase activity was determined from the same samples by adding the coelenterazine substrate to the supernatant to a final concentration of 10 μM and reading on a standard plate reader (BioTek).
INS-1E cells were expanded to 80% confluence in their growth medium, washed once in PBS, and preincubated for 1 hr at 37° C. in KRB with 2.8 mM glucose. Cells were then dissociated, spun at 300×g for 2 min, resuspended in fresh KRB without glucose, and filtered through 40 μm mesh (Becton Dickinson). Next, the cells were counted and diluted in KRB to 1×10^6 cells per ml, and glucose was added as required for each experiment. Cells were then seeded in 384-well format, 3×10^4 cells in 30 μl per well, using a Multidrop Combi device (Thermo Scientific). Compounds were pinned into each well using a Vario robot (CyBio) to a final concentration of 30 μM, and the plates were then incubated for 2 hr at 37° C. For assays involving a transfer step, the plates were then centrifuged at 300×g for 2 min, and 20 μl of supernatant was transferred to a new 384-well plate. Coelenterazine substrate was then added to a final concentration of 10 μM, and luciferase activity was determined using a standard plate reader (BioTek).

SMILES	glucose-dependent (glucose-stimulated) insulin secretion, luciferase reporter	Activity
COc1ccc(CCc2nc3cc(-c4c(C)noc4C)ccc3n2C[C@H](C)N2CCOCC2)cc1Cl [CBP30, reference compound]	neither of the known bromodomain inhibitors (PF1 or CBP30) affect secretion to the extent of Compound 8	
Cc1cccc(C)c1NC(=O)c1ccc(OCc2c(C)noc2C)cc1 [Compound 16]	some positive effect on secretion	
Cc1ccccc1NC(=O)c1ccc(OCc2c(C)noc2C)cc1 [Compound 17]	some positive effect on secretion	
Cc1cccc(-c2cnc(-c3ccc(NCc4c(C)noc4C)cc3)[nH]2)c1C [Compound 27]		Inactive
Cc1cccc(-c2cc(-c3ccc(NCc4c(C)noc4C)cc3)[nH]n2)c1C [Compound 28]		Inactive
Cc1cccc(-c2ncc(-c3ccc(NCc4c(C)noc4C)cc3)[nH]2)c1C [Compound 29]		Inactive
Cc1cccc(-c2nc(C)c(-c3ccc(NCc4c(C)noc4C)cc3)[nH]2)c1C [Compound 30]		Inactive
Cc1cc(NCc2c(C)noc2C)ccc1-c1cnc(-c2cccc(C)c2C)[nH]1 [Compound 31]		Inactive
Cc1cccc(NS(=O)(=O)c2ccc(NCc3c(C)noc3C)cc2)c1C [Compound 32]		Inactive
Cc1cccc(NC(c2ccc(NCc3c(C)noc3C)cc2)C(F)(F)F)c1C (stereo not drawn) [Compound 33]		Inactive
Cc1cccc(-c2nc3cc(NCc4c(C)noc4C)ccc3[nH]2)c1C [Compound 34]		Inactive
Cc1cccc(-c2noc(-c3ccc(NCc4c(C)noc4C)cc3)n2)c1C [Compound 35]		Inactive
Cc1ccc2nc(-c3ccc(NCc4c(C)noc4C)cc3)[nH]c2c1C [Compound 36]		Inactive
Cc1cccc(NC(=O)c2ccc(OCc3c(C)noc3C)cn2)c1C [Compound 45]		Inactive
Cc1cccc(NC(=O)c2ccc(OCc3c(C)noc3C)cc2O)c1C [Compound 46]		Inactive
Cc1cccc(NC(=O)c2ccc(OCc3cnoc3)cc2)c1C [Compound 47, N-(2,3-Dimethyl-phenyl)-4-(isoxazol-4-ylmethoxy)-benzamide]		Inactive
Cc1cccc(NC(=O)c2ccc(OCc3c(C)cnn3C)cc2)c1C [Compound 48]		Inactive
Cc1cccc(NC(=O)c2ccc(OCc3c(C)ccnc3C)cc2)c1C [Compound 50, N-(2,3-Dimethyl-phenyl)-4-(2,4-dimethyl-pyridin-3-ylmethoxy)-benzamide]		Inactive
CC1=CC(=O)Cc2cc(COc3ccc(C(=O)Nc4cccc(C)c4C)cc3)ccc21 [Compound 51]		Partial activity, Lost Glucose Dependence
Cc1cccc(NC(=O)c2ccc(OC(C)c3c(C)noc3C)cc2)c1C (stereo not drawn) [Compound 52]		Inactive
Cc1cccc(NC(=O)c2ccc(OCc3cn(C)nc3C)cc2)c1C [Compound 53]		Inactive
Cc1cccc(NC(=O)c2ccc(OCc3c(C)nn(C)c3C)cc2)c1C [Compound 54]		Inactive
Cc1cccc(NC(=O)c2ccc(/C=C\c3c(C)noc3C)cc2)c1C [Compound 55 (cis)]		Inactive
Cc1cccc(NC(=O)c2ccc(/C=C/c3c(C)noc3C)cc2)c1C [Compound 55]		Partial activity, Lost Glucose Dependence

SMILES	glucose-dependent (glucose-stimulated) insulin secretion, luciferase reporter	Activity
Cc1cccc(NC(=O)c2ccc(N(C)Cc3c(C)noc3C)cc2)c1C [Compound 56]		Inactive
Cc1cccc(NC(=O)c2ccc(CNc3c(C)noc3C)cc2)c1C [Compound 57, 4-[(3,5-Dimethyl-isoxazol-4-ylamino)-methyl]-N-(2,3-dimethyl-phenyl)-benzamide]		Inactive
Cc1cccc(NC(=O)c2ccc(CN(C)c3c(C)noc3C)cc2)c1C [Compound 58, 4-{[(3,5-Dimethyl-isoxazol-4-yl)-methyl-amino]-methyl}-N-(2,3-dimethyl-phenyl)-benzamide]		Inactive
Cc1cccc(NC(=O)c2ccc(OCc3ccnnc3)cc2)c1C [Compound 59, N-(2,3-Dimethyl-phenyl)-4-(pyridazin-4-ylmethoxy)-benzamide]		Inactive
Cc1cccc(NC(=O)c2ccc(OCc3ccncc3)cc2)c1C [Compound 60, N-(2,3-Dimethyl-phenyl)-4-(pyridin-4-ylmethoxy)-benzamide]		Inactive
Cc1cccc(NC(=O)c2ccc(OCc3cccnc3)cc2)c1C [Compound 61, N-(2,3-Dimethyl-phenyl)-4-(pyridin-3-ylmethoxy)-benzamide]		Inactive
Cc1cccc(NC(=O)c2ccc(OCc3ccccn3)cc2)c1C [Compound 62]		Inactive
Cc1cccc(NC(=O)c2ccc(OCc3cccnc3C)cc2)c1C [Compound 63, N-(2,3-Dimethyl-phenyl)-4-(2-methyl-pyridin-3-ylmethoxy)-benzamide]		Inactive
Cc1ccncc1COc1ccc(C(=O)Nc2cccc(C)c2C)cc1 [Compound 64, N-(2,3-Dimethyl-phenyl)-4-(4-methyl-pyridin-3-ylmethoxy)-benzamide]		Inactive
COc1ncccc1COc1ccc(C(=O)Nc2cccc(C)c2C)cc1 [Compound 65, N-(2,3-Dimethyl-phenyl)-4-(2-methoxy-pyridin-3-ylmethoxy)-benzamide]		Inactive
Cc1cccc(NC(=O)c2ccc(OCc3cnccc3Cl)cc2)c1C [Compound 66, 4-(4-Chloro-pyridin-3-ylmethoxy)-N-(2,3-dimethyl-phenyl)-benzamide]		Inactive
Cc1cccc(NC(=O)c2ccc(OCc3cccnc3Cl)cc2)c1C [Compound 67, 4-(2-Chloro-pyridin-3-ylmethoxy)-N-(2,3-dimethyl-phenyl)-benzamide]		Inactive
Cc1noc(C)c1COc1ccc(C(=O)Nc2cccc(Cl)c2Cl)cc1 [Compound 68, N-(2,3-Dichloro-phenyl)-4-(3,5-dimethyl-isoxazol-4-ylmethoxy)-benzamide]		Active
Cc1cccc(NC(=O)c2ccc(OCc3c(C)noc3C)cc2)c1C#N [Compound 69, N-(2-Cyano-3-methyl-phenyl)-4-(3,5-dimethyl-isoxazol-4-ylmethoxy)-benzamide]		Active
Cc1cccc(NC(=O)c2ccc(OCc3c(C)noc3C)cc2)c1CO [Compound 70]		Active
Cc1noc(C)c1COc1ccc(C(=O)Nc2cccc(Cl)c2C)cc1 [Compound 72, N-(3-Chloro-2-methyl-phenyl)-4-(3,5-dimethyl-isoxazol-4-ylmethoxy)-benzamide]		Active
Cc1noc(C)c1COc1ccc(C(=O)Nc2cccc3c2CCCC3)cc1 [Compound 73, 4-(3,5-Dimethyl-isoxazol-4-ylmethoxy)-N-(5,6,7,8-tetrahydro-naphthalen-1-yl)benzamide]		Inactive
Cc1noc(C)c1COc1ccc(C(=O)Nc2cccc3ccccc23)cc1 [Compound 74, 4-(3,5-Dimethyl-isoxazol-4-ylmethoxy)-N-naphthalen-1-yl-benzamide]		Inactive
Cc1cccc(NC(=O)c2ccc(OCc3c(C)noc3C)cc2)c1 [Compound 75]		Inactive
Cc1ccccc1NC(=O)c1ccc(OCc2c(C)noc2C)cc1 [Compound 76]		Inactive
Cc1cccc(C)c1NC(=O)c1ccc(OCc2c(C)noc2C)cc1 [Compound 77]		Inactive
Cc1cccc(NC(=O)c2ccc(OCc3c(C)noc3C)cc2)c1Cl [Compound 78, N-(2-Chloro-3-methyl-phenyl)-4-(3,5-dimethyl-isoxazol-4-ylmethoxy)-benzamide]		Inactive
Cc1noc(C)c1COc1ccc(C(=O)N2CCc3ccccc32)cc1 [Compound 79]		Inactive
Cc1noc(C)c1COc1ccc(C(=O)N2CCCc3ccccc32)cc1 [Compound 80]		Inactive
